Each structure is given as a SMILES string. Converted amounts (≈) assume the structure as drawn.

6 compounds from patent publication US4820717A, “Antimicrobial aromatic derivatives substituted by an (omega amino) alkanol group and compositions containing them” (priority 1985, dated 1989) can be followed below.

The subject of data set [1] is Escherichia Coli CNCM 54125. Briefly: Bactericidal activity (MBC), strain 1. The format is cell-based. The conditions noted are these: 20 min, strain 1, 20 minutes of contact, read-out: Minimum bactericidal concentration (MBC). An excerpt:
(§1) The bactericidal activity of the products according to the invention has been analyzed on various strains by the method described hereafter:
(§2) A bacterial inoculum is placed in contact with different dilutions of the product to be tested, and this for a limited period of time. At the end of contact, an aliquot part of the mixture bacterial suspension/product is deposited on the surface of an agar culture medium containing an agent neutralizing the antibacterial activity of the product. The bactericidal concentration retained is the smallest concentration of the product from which bacteria stop growing. Said concentration is expressed in μg/ml.
(§3) The bacterial strains selected for the analysis are:
1--Escherichia Coli CNCM 54125;
(§4) The second strain is supported on a Worgel Fergusson medium, the other strains being supported on Tryptic Soy Agar-Difco (TSA) commercialized by Difco.
(§5) After a 24-hour culture period at 37° C., the microbial growth is collected by means of glass beads and of 10 ml of diluent containing 1 g of tryptone and 8.5 g of sodium chloride in 1000 ml of distilled water. The formed suspension is stirred and the percentage of light transmission at 620 nm is measured with a spectrophotometer:
(§6) The bacterial inoculum corresponds to a 1/20th dilution of this bacterial suspension.
(§7) Plates equipped with cupules receive different dilutions of the product to be analyzed. These dilutions are placed in contact with the different bacterial suspensions by means of a multiple-center inoculator. After 20 minutes of contact, aliquot parts are transferred by means of said inoculator on the surface of an agar medium (TSA) in Petri dishes, containing an activity-neutralizing agent, namely 20 g of lubrol W, 25 g of Tween 80 and 2.5 g of sodium thiosulfate in 1000 ml of TSA (Difco). The efficiency of the neutralizing agent is controlled for each product to be analyzed by depositing on the surface of the culture medium an aliquot part of the dilution of the product to be analyzed. After drying, the corresponding inoculum is deposited in the same place. An inoculum control is performed on an agar medium with or without neutralizing agent. Readings are taken after 48 hours of incubation at 37° C.

Data set [2] has as its system Streptococcus faecalis CNCM 5855. Nature of the data set: Bactericidal activity (MBC), strain 4. The format is cell-based. The conditions noted are these: Enterococcus faecalis, CNCM5855, 20 min; strain 4, 20 minutes of contact; read-out: Minimum bactericidal concentration (MBC).
Excerpt: as §1, §2, §3
4--Streptococcus faecalis CNCM 5855;
as §4, §5, §6, §7

For data set [3], the system named is guinea-pig skin. Nature of the data set: Skin sensitization test in the guinea-pig. The format is in vivo. The conditions noted are these: one week treatment after two weeks' rest. The protocol: The tolerance of the products according to the invention was tested in the guinea-pig. The animals are shorn on both sides of the middle line of the back, the shearing being kept up every other day. Batches of 6 animals receive, on the shorn part, 0.2 ml of an aqueous or alcoholic solution of the product according to the invention. When these products are in alcoholic solution, one control batch of animals receives the alcohol on one side. The skin sensitization test is performed on the same animals after two weeks' rest. The treatment lasts one week, it is identical to the preceding one. The evaluation is based on the same criteria and on the same scale as used to determine the local tolerance.

Data set [4] has as its system Staphylococcus aureus CNCM 53154. Briefly: Bactericidal activity (MBC), strain 5. It is filed as cell-based. To be noted: CNCM53154, 20 min, strain 5, 20 minutes of contact, read-out: Minimum bactericidal concentration (MBC).
Excerpt: as §1, §2, §3
5--Staphylococcus aureus CNCM 53154.
as §4, §5, §6, §7

Data set [5] in a line: Acute toxicity by oral route in mice. To be noted: mouse, in vivo, per os, male CD1 mice, 14 days observation. The protocol: Acute toxicity was tested by oral route in mice. This test was carried out with male mice of CD1 strain, obtained from the Charles Reever breeding farm. Each batch was composed of 5 animals of body weight varying between 24 and 30 g kept in the same cage. The animals were kept fasting for 6 hours before the treatment. For every test, the product, placed in suspension in a 10% solution of gum arabic, was administered by forcible feeding with an oesophageal probe. Food was then served to the animals 4 hours after the forcible feeding and the animals were kept under observation for a period of 14 days after the administration. During that period, the death rate is recorded for each batch of animals used in the experiment and, wherever possible, the LD50 is determined by the method of J. T. Litchfield and F. Wilcoxon, J. Pharmacol. 1949, 95, 99-113.
The results are given in mg of substance tested per kg of body weight. They are compiled in Table III below.

For data set [6], the system named is Pseudomonas aeruginosa CNCM A22. Briefly: Bactericidal activity (MBC), strain 3. It is filed as cell-based. To be noted: CNCMA22, 20 min, strain 3, 20 minutes of contact, read-out: Minimum bactericidal concentration (MBC).
Excerpt: as §1, §2, §3
3--Pseudomonas aeruginosa CNCM A22;
as §4, §5, §6, §7

The subject of a further data set is guinea-pig. Briefly: Phototoxic or photoallergic effect on the guinea-pig. The format is in vivo. An excerpt:
The products according to the invention have also been tested for a phototoxic or photoallergic effect on the guina-pig. The technique used is that of J. Unkovic, G. Mazue and J. Girard, in "Sciences et Techniques de l'Animal de Laboratoire", 1983, 8 (3), 149-160. This is an adaptation of the techniques described by L. C. Harber et al., Arch. Dermatol., 1967, 96, 646-656 and L. J. Vinson et al., Arch. Dermatol., 1966, 17, 123-130.

Data set [7] relates to Encapsulated klebsiella pneumoniae R030. Briefly: Bactericidal activity (MBC), strain 2. The format is cell-based. The conditions noted are these: 20 min, strain 2, 20 minutes of contact, read-out: Minimum bactericidal concentration (MBC).
Excerpt: as §1, §2, §3
2--Encapsulated klebsiella pneumoniae R030;
as §4, §5, §6, §7

The subject of data set [8] is guinea-pig skin. Briefly: Preliminary skin tolerance in the guinea-pig. It is filed as in vivo. To be noted: 0.2 ml on shorn skin once a day, six days out of seven, three weeks. Here is the method: The tolerance of the products according to the invention was tested in the guinea-pig. The animals are shorn on both sides of the middle line of the back, the shearing being kept up every other day. Batches of 6 animals receive, on the shorn part, 0.2 ml of an aqueous or alcoholic solution of the product according to the invention. When these products are in alcoholic solution, one control batch of animals receives the alcohol on one side.
To study the preliminary skin tolerance, the treatment is applied once a day, six days out of seven, for three weeks. The observations made of the skin are concerned with the presence of erythema, skin eruptions or hyperkeratosis, the intensity of which is graduated according to a preset scale.

The test system of another data set is Candida parakruzei 3918. Briefly: Antifungal activity (MFC), strain 3. To be noted: 20 min; yeast strain 3; read-out: Minimum fongicidal concentration (MFC). The format is cell-based.
Excerpt: as §2, §7
(§8) The antifungal activity of the products according to the invention was also determined with the aforedescribed method.
(§9) The fungal strains selected for the analysis are:
3--Candida parakruzei 3918;
(§10) These strains are supported on a Sabouraud Dextrose agar medium commercialized by Difco; the technique used is the same as that used in the analysis of the antibacterial activity. After 48 hours of culture at 37° C., the microbial growth is collected with glass beads and 5 ml of diluent containing 1 g of tryptone and 8.5 g of sodium chloride in 1000 ml of distilled water; 5 ml of the diluent are then added. […] A 1/100th dilution of this suspension, observed between slides under a microscope 40-lens, should show 10 cells per frame, this corresponding to 1,000,000 yeasts per ml.

In data set [9] the test system is Candida albicans CNCM 1180. Briefly: Antifungal activity (MFC), strain 1. The format is cell-based. To be noted: 20 min; yeast strain 1; read-out: Minimum fongicidal concentration (MFC).
Excerpt: as §2, §7, §8, §9
1--Candida albicans CNCM 1180;
as §10

Data set [10] concerns Torulopsis glabrata 072023. Nature of the data set: Antifungal activity (MFC), strain 4. The format is cell-based. The conditions noted are these: 20 min; yeast strain 4; read-out: Minimum fongicidal concentration (MFC).
Excerpt: as §2, §7, §8, §9, §10

The test system of another data set is Candida tropicalis 3834. Briefly: Antifungal activity (MFC), strain 2. The format is cell-based. The conditions noted are these: 20 min; yeast strain 2; read-out: Minimum fongicidal concentration (MFC).
Excerpt: as §2, §7, §8, §9
2--Candida tropicalis 3834;
as §10

Regarding `CN(C)CCCCCCC(CO)c1cccc2ccccc12` (centres unmarked) [SR 43 727 A], the MBC was 20 µg/mL (≈ 66.8 µM) in [1]; 20 µg/mL (≈ 66.8 µM) in data set [2]; 200 µg/mL (≈ 668 µM) in data set [4]; 50 µg/mL (≈ 167 µM) in data set [6]; 50 µg/mL (≈ 167 µM) in [7]. In the data set on guinea-pig skin [3], the “products found to have a sensibilizing effect” value is reported as “None”. The same compound returned an LD50 at 336 h in data set [5] of 580 mg/kg. Moreover, the “products found to have a phototoxic or photoallergic effect” value in the data set on guinea-pig is “None”. In addition, the “products found to have a bad tolerance” value with guinea-pig skin [8] is given as “None”.

Take `OCC(CCN1CCCC1)c1cccc2ccccc12` (centres unmarked) [SR 43 063 A]: the MBC in data set [1] was 2000 µg/mL (≈ 7420 µM); in data set [2], 2000 µg/mL (≈ 7420 µM); in data set [4], 1000 µg/mL (≈ 3710 µM); in data set [6] it was 1000 µg/mL (≈ 3710 µM); in [7], 1000 µg/mL (≈ 3710 µM). Besides, the LD50 at 336 h in [5] is 300 to 400 mg/kg.

Regarding `OCC(CCN1CCC(Cc2ccccc2)CC1)c1ccc(Cl)cc1Cl` (centres unmarked) [SR 44 027 A], the MBC in data set [1] was found to be 50 µg/mL (≈ 127 µM); in data set [2] it was 100 µg/mL (≈ 255 µM); in data set [4] it was 200 µg/mL (≈ 510 µM); in data set [6], 100 µg/mL (≈ 255 µM); in data set [7], 50 µg/mL (≈ 127 µM). Further, the MFC came to 500 µg/mL (≈ 1270 µM) with Candida parakruzei 3918, 250 µg/mL (≈ 637 µM) in data set [9], 250 µg/mL (≈ 637 µM) in data set [10] and 250 µg/mL (≈ 637 µM) in the data set on Candida tropicalis 3834. In data set [5], the LD50 at 336 h lay in the range of 1000 to 1200 mg/kg.

On to `OCC(CCN1CCCCCC1)c1cccc2ccccc12` (centres unmarked) [SR 43 155 A], for which the MBC in [1] is 500 µg/mL (≈ 1680 µM); in [2] it was 500 µg/mL (≈ 1680 µM); in data set [4], 500 µg/mL (≈ 1680 µM); in data set [6], 200 µg/mL (≈ 672 µM); in [7], 500 µg/mL (≈ 1680 µM). The MFC was found to be 500 µg/mL (≈ 1680 µM) in the data set with Candida parakruzei 3918, 500 µg/mL (≈ 1680 µM) in data set [9], 2000 µg/mL (≈ 6720 µM) in [10] and 500 µg/mL (≈ 1680 µM) in the data set with Candida tropicalis 3834. The compound also displayed an LD50 at 336 h in data set [5] of less than 500 mg/kg.

As to `CCN(CC)CCC(CO)c1cccc2ccccc12.Cl` (centres unmarked) [SR 42 989 A, 4-(N,N-diethylamino)-2-(1-naphthyl)-butanol hydrochloride], the MBC in [1] came out at 1500 µg/mL; in data set [2] it was 2000 µg/mL; in data set [4] it was 1500 µg/mL; in data set [6], 1500 µg/mL; in data set [7] it was 1500 µg/mL. In [5], this compound yielded an LD50 at 336 h of 300 to 400 mg/kg.

For the compound `CC(C)N(CCC(CO)c1cccc2ccccc12)C(C)C` (centres unmarked) [SR 43 121 A], the MBC in data set [1] was 1500 µg/mL (≈ 5010 µM); in data set [2] it was 800 µg/mL (≈ 2670 µM); in [4], 800 µg/mL (≈ 2670 µM); in data set [6] it was 1500 µg/mL (≈ 5010 µM); in data set [7], 1500 µg/mL (≈ 5010 µM). The LD50 at 336 h in [5] fell in the range of 300 to 400 mg/kg.
